{
  "source": "patent US20260048155A1",
  "about": "“BIOCOMPATIBLE PARAHYDROGEN HYPERPOLARIZED SOLUTIONS BY PRECIPITATION AND RE-DISSOLUTION” (North Carolina State University, priority 2022, published 2026)",
  "key": {"[1]": {"experiment": "SABRE polarization build-up and T1 relaxation dynamics in SABRE solvents", "type": "physicochemical", "conditions": "for 13C T1 decay / polarization build-up Tb: 0.4 μT", "method": "CD3OD is widely used as the SABRE-reaction-hosting solvent because it provides convenient means of attaining high-field NMR spectrometer lock. However, non-deuterated polarization media may be preferred for biomedical applications. For this reason, systematic relaxation dynamics studies were performed comparing CD3OD, CH3OH, and C2H5OH for SABRE-SHEATH [1-^13C]pyruvate hyperpolarization, investigating relevant parameters for these solvents and for fixed concentrations of pyruvate, SABRE catalyst, and DMSO (30 mM, 6 mM, and 40 mM, respectively). However, the ethanol sample was prepared with only 6 mM pyruvate and 10% H2O due to limited solubility. The optimal Br was similar in all investigated samples (≈0.4 μT, FIG. 4A). […] (FIG. 4B). Thus, all the experiments described below were performed using these optimized Br and Tr parameters.\nThe polarization build-up (Tb) and decay (T1) at 0.4 μT were similar: Tb=13.7±0.6 s versus 19.3±0.6 s; and T1=26.0±0.4 s versus 29.1±0.8 s, respectively (FIGS. 4C, 4E). P13C values were also similar; in one representative example of polarization build-up, P13C was 7.8±0.1% vs. 8.5±0.1% for CH3OH and CD3OD media, respectively, FIG. 4D. […] For ethanol, 1.4-fold lower P13C values were obtained in this mixture compared to CH3OH and CD3OD, which is rationalized by a more efficient relaxation at the SABRE-SHEATH field, FIG. 4E.\nData fitting and error propagation for relaxation and polarization build-up data presented in FIGS. 4A-4I: Data in FIGS. 4C, 4F, 4H was fitted using mono-exponential functions (solid lines) and extracted values with error of polarization build-up or relaxation are presented in bar plots (FIGS. 4D, 4E, 4G, 4I)."}, "[2]": {"experiment": "Lifetime (13C T1) of polarization in precipitated and aqueous samples", "type": "physicochemical", "conditions": "for T1 in the aqueous phase after Re-D SABRE: N=2", "method": "To investigate the impact of precipitate relaxation in variable magnetic fields during the dissolution process, the Re-D SABRE experiment was repeated, omitting the addition of water after precipitation (i.e., the decay of ^13C HP signal in the dissolved phase of the precipitated samples was measured). […] For (iii), P13C was still much lower compared to the sample that rested at the 1.4 T magnet (setup iv), i.e., P13C=0.08±0.02% and P13C=3.4±0.9%, respectively—this signal is entirely derived from the remaining dissolved pyruvate in solution (2.3±0.6 mM in the 500 μL sample of EtAc and CH3OH, FIG. 17) not from the precipitated micro-crystalline phase. […] This observation is important because it means the Re-D SABRE process can be successfully performed at storage fields as low as 0.3 T. The rapid ^13C T1 of HP [1-^13C]pyruvate in the EtAc fraction at Earth's field, estimated to be <1.3 s, may be caused by the high catalyst: substrate ratio in the EtAc.\nHP signals from the sample before or after re-dissolution were measured as a function of an additional delay td (ranging from 0 to 23 s; t=tprec+td), during which P13C was allowed to decay. At the end of td, the signal was detected either immediately (green circles, FIG. 6D, sampling the decay rate of the residual dissolved-phase pyruvate) or after the dissolution with D2O (squares, FIG. 6D, sampling the decay rate of the entire pyruvate (precipitated and dissolved) pool). Assuming a mono-exponential decay, the apparent ^13C T1 was 7.0±0.4 s or 5.3±0.2 s, respectively. […] In sharp contrast, T1 values in the aqueous phase measured after the Re-D SABRE process were 41.6±0.3 s in H2O and 102±1.3 s in D2O, FIG. 6E, using a series of pulse-detect NMR experiments with low flip angle of 9° (N=2)."}},
  "data": [
    {"smiles": "CC(=O)[13C](=O)O", "note": "[[1-^13C]pyruvate]", "values": [
      {"measurement": "13C T1 decay", "setting": "[1]; 30 mM in CD3OD", "value": "26.0 ± 0.4", "unit": "s"},
      {"measurement": "polarization build-up Tb", "setting": "[1]; 30 mM in CD3OD", "value": "13.7 ± 0.6", "unit": "s"},
      {"measurement": "13C T1 relaxation time", "setting": "[1]; 30 mM in CD3OD, 1.4 T", "value": "86 ± 2", "unit": "s"},
      {"measurement": "13C T1 decay", "setting": "[1]; 30 mM in CH3OH", "value": "29.1 ± 0.8", "unit": "s"},
      {"measurement": "polarization build-up Tb", "setting": "[1]; 30 mM in CH3OH", "value": "19.3 ± 0.6", "unit": "s"},
      {"measurement": "13C T1 relaxation time", "setting": "[1]; 30 mM in CH3OH, 1.4 T", "value": "59.3 ± 0.8", "unit": "s"},
      {"measurement": "T1 relaxation time", "setting": "[1]; 60 mM in CH3OH, 1.4 T", "value": "59.3 ± 0.5", "unit": "s"},
      {"measurement": "T1 relaxation time", "setting": "[1]; 60 mM in CH3OH, 300 nT", "value": "34.6 ± 1.1", "unit": "s"},
      {"measurement": "polarization build-up time constant Tb", "setting": "[1]; 60 mM in CH3OH, 300 nT", "value": "22.0 ± 0.7", "unit": "s"},
      {"measurement": "1-13C T1", "setting": "[1]; dissolved in CH3OH:catalyst mixture, Earth's field", "value": "46.5 ± 0.9", "unit": "s"},
      {"measurement": "T1 in the aqueous phase after Re-D SABRE", "setting": "[2]; D2O, 1.4 T", "value": "102 ± 1.3", "unit": "s"},
      {"measurement": "13C T1 in the EtAc fraction", "setting": "[2]; Earth's field, estimated", "value": "< 1.3", "unit": "s"},
      {"measurement": "T1 in the aqueous phase after Re-D SABRE", "setting": "[2]; H2O, 1.4 T", "value": "41.6 ± 0.3", "unit": "s"},
      {"measurement": "apparent 13C T1, entire pyruvate (precipitated and dissolved) pool", "setting": "[2]; precipitated sample, 1.4 T, detected after dissolution with D2O", "value": "5.3 ± 0.2", "unit": "s"},
      {"measurement": "apparent 13C T1, residual dissolved-phase pyruvate", "setting": "[2]; precipitated sample, 1.4 T, detected immediately, mono-exponential", "value": "7.0 ± 0.4", "unit": "s"}
    ]}
  ]
}
